# Source: patent US20230121313A1 (priority 2019, published 2023)
# Where a name gives a salt, the structure may show the parent alone.
# What was measured:
# [1] = Solubility of esketamine HCl; conditions: for solubility: pH 4.5, aqueous buffer
# Description: The clinical investigational product is an aqueous solution of the drug substance, esketamine hydrochloride (HCl). This formulation is administered intranasally to patients using a dual nasal spray device, which delivers one spray into each nostril. […] The formulation was stored at 37° C. for stability reasons until dosing.
# [2] = tested on: patients with treatment-resistant depression (TRD); test: Vital signs (blood pressure, heart rate), phase 2 dose-response study in TRD; type: in vivo, human
# patients = test: Adverse reactions across clinical studies as described in product labeling; type: in vivo, human
# Source text: In the product labeling, patients will be informed that dissociative/perceptual changes (including distortion of time and space and illusions), derealization and depersonalization are common psychological effects of esketamine. Patients will be further advised that • These adverse reactions were reported as transient and self-limited and occurred on the day of dosing. • Dissociation was reported as severe in intensity at the incidence of less than 4% across studies, • Dissociation symptoms typically resolved by 1.5 hours after dosing and the severity tended to reduce over time with repeated treatments. • Dissociative and perception disturbances may decrease after a few treatment sessions.
# The product label will include a brief description of the adverse reactions of sedation and somnolence reported in clinical studies with esketamine: • Events of sedation and somnolence were primarily mild or moderate in severity, occurred on the day of dosing and resolved spontaneously the same day. • The sedative effects typically resolved by 1.5 hours after dosing. • Rates of somnolence were relatively stable over time during long-term treatment. • In the cases of sedation, no symptoms of respiratory distress were observed, and hemodynamic parameters (including vital signs and oxygen saturation) remained within normal ranges.
# [3] = tested on: subjects with MDD at imminent risk for suicide; test: SIBAT Clinical Global Judgment of Suicide Risk, Study […]2001; type: in vivo, human; conditions: 84 mg
# Source text: (§1) • a. Changes from baseline to Day 2 and Day 25 for the MADRS total score • b. Changes from baseline to Day 1 4-hours postdose, Day 2 and Day 25 for the MADRS Suicide Item • c. Changes from baseline to Day 1 4-hours postdose, Day 2, and Day 25 for the clinical global judgment of suicide risk from the Suicide Ideation and Behavior Assessment Tool (SIBAT) • d. Sustained response (Onset of Clinical Response) defined as at least 50% reduction from baseline in MADRS total score with onset on Day 1 that is maintained through the end of the double-blind phase (Day 25) • e. Changes from baseline to Day 1 4-hours postdose, Day 2, and Day 25 for the Beck Scale for Suicidal Ideation (BSS) • f. Changes from baseline to Day 1 4-hours postdose and Day 25 for the Beck Hopelessness Scale
# The clinical global judgment of suicide risk (Module 8) summarizes clinician overall judgment of suicide risk as derived from information gathered from the full SIBAT tool. It operates like numerous other CGI-severity scales that have been used in other psychiatric studies. Change in the clinical global judgment of suicide risk is designed to directly identify clinical meaningful changes in suicidal ideation and to permit classification of suicide risk.
# The analysis of the change in SIBAT score was based on an ANCOVA model on ranks of change in SIBAT with treatment, antidepressant therapy, and analysis center as factors, and baseline value (unranked) as a covariate. There was a significant difference (two-sided […]) between the two treatment groups when comparing the mean rank of change from baseline at Day 1: 4-hours postdose in favor of esketamine 84 mg See, Table 58. See, FIG. 39. […] This difference was not evident at the Day 25 DB endpoint. See, FIG. 40, which is based on LOCF data and analyzed using Cochran-Mantel-Haenszel test controlling for analysis center and antidepressant therapy.
# [4] = tested on: patients with treatment-resistant depression (TRD); test: BPRS positive symptom subscale, phase 2 dose-response study in TRD; type: in vivo, human
# Description: (§2) Adverse events were monitored throughout the study. Other safety assessments (i.e., laboratory tests, vital signs, physical examination) were performed at pre-specified time points. Vital signs, the Clinician Administered Dissociative States Scale (CADSS; Bremner, “Measurement of dissociative states with the clinician-administered dissociative states scale (CADSS)”, J. Traumatic Stress, 1998, 11(1):125-136), and the 4-item positive symptom subscale from the Brief Psychiatric Rating Scale (BPRS; Overall, “The Brief Psychiatric Rating Scale. Psychological Reports”, 1962, 10:799-812) were assessed pre-dose, at 40 minutes, and 2 hours post-dose.
# [5] = tested on: subjects with MDD at imminent risk for suicide; test: Beck Scale for Suicidal Ideation (BSS), Study […]2001; type: in vivo, human; conditions: 84 mg; for BSS total score change, Diff. of LS Means (minus Placebo): ANCOVA LOCF; for BSS total score, change from baseline, mean / BSS total score, change from baseline, median / BSS total score, mean / BSS total score, median: LOCF, N 34
# Source text: as §1
# The BSS is a 21-item self-reported instrument to detect and measure the severity of suicidal ideation in adults and adolescents aged 17 years and older. The BSS total score represents the severity of suicide ideation, and it is calculated by summing the ratings of the first 19 items; the total score ranges from 0 to 38, with a higher score representing greater suicide ideation. Increasing scores reflect increases in suicidal risk.
# [6] = Pharmacokinetics of esketamine nasal spray, data assembled from 14 Phase 1 studies (Example 10); conditions: human, plasma, inhaled or intranasal
# Description: The data herein was assembled from 14 Phase 1 studies; each Phase 1 study was performed similarly to the study outlined in Example 9 in which the PK of esketamine was assessed.
# [7] = tested on: patients with treatment-resistant depression (TRD); test: CADSS, phase 2 dose-response study in TRD; type: in vivo, human
# Description: as §2
structure (smiles),measurement,setting,value
"CN[C@]1(c2ccccc2Cl)CCCCC1=O [esketamine HCl, (S)-2-(2-chlorophenyl)-2-(methylamino)cyclohexanone hydrochloride]",solubility,[1]; aqueous solution,207 mg/mL
same,Maximum solubility expressed as esketamine base,"[1]; room temperature, pH 4.5, factor 1.15",180 mg esketamine base/mL
same,solubility,[1]; water,180 mg/mL
"CN[C@]1(c2ccccc2Cl)CCCCC1=O [esketamine, (S)-2-(2-chlorophenyl)-2-(methylamino)cyclohexanone]",Diastolic blood pressure: maximum mean change on dosing days,[2],10.3 mmHg
same,Elevated blood pressure returned to the normal range by (post-dose),[2],≤ 2 h
same,Heart rate: maximum mean change on dosing days,[2],9.4 bpm
same,Systolic blood pressure: maximum mean change on dosing days,[2],19.0 mmHg
same,Maximum diastolic blood pressure value,[2]; 10 or 40 minutes post-dose,115 mmHg
same,Maximum systolic blood pressure value,[2]; 10 or 40 minutes post-dose,199 mmHg
same,Dissociation symptoms typically resolved by (after dosing),patients; across studies,≤ 1.5 h
same,Incidence of dissociation reported as severe in intensity,patients; across studies,less than 4%
same,Sedative effects typically resolved by (after dosing),patients; clinical studies,≤ 1.5 h
same,"SIBAT Clinical Global Judgment of Suicide Risk, change from baseline, median (range)","[3]; Day 1 (DB): 4 H, LOCF, N 33",0.0 (−6; 1)
same,"SIBAT Clinical Global Judgment of Suicide Risk, median (range)","[3]; Day 1 (DB): 4 H, LOCF, N 33",5.0 (0; 6)
same,"SIBAT Clinical Global Judgment of Suicide Risk, change from baseline, median (range)","[3]; Day 2(DB) LOCF, N 35",−1.0 (−6; 1)
same,"SIBAT Clinical Global Judgment of Suicide Risk, median (range)","[3]; Day 2(DB) LOCF, N 35",5.0 (0; 6)
same,Subjects with a SIBAT score of 5 or 6,"[3]; […]2001, Day 1: 4-hour postdose",63.6%
same,Symptoms suggestive of psychosis (BPRS-positive assessment),[4],No participant manifested symptoms suggestive of psychosis
same,"BSS total score change, Diff. of LS Means (minus Placebo)",[5]; Day 1 (DB): 4 H,−2.3
same,"BSS total score, change from baseline, mean",[5]; Day 1 (DB): 4 H,−10.2
same,"BSS total score, change from baseline, median",[5]; Day 1 (DB): 4 H,−8.0
same,"BSS total score, mean",[5]; Day 1 (DB): 4 H,13.8
same,"BSS total score, median",[5]; Day 1 (DB): 4 H,16.5
same,"BSS total score change, Diff. of LS Means (minus Placebo)",[5]; Day 2 (DB),−1.9
same,"BSS total score, change from baseline, mean",[5]; Day 2 (DB),−12.9
same,"BSS total score, change from baseline, median",[5]; Day 2 (DB),−11.5
same,"BSS total score, mean",[5]; Day 2 (DB),11.1
same,"BSS total score, median",[5]; Day 2 (DB),13.0
same,"BSS total score change, Diff. of LS Means (minus Placebo)",[5]; End Point (DB),−1.7
same,"BSS total score, change from baseline, mean",[5]; End Point (DB),−19.3
same,"BSS total score, change from baseline, median",[5]; End Point (DB),−21.0
same,"BSS total score, mean",[5]; End Point (DB),4.7
same,"BSS total score, median",[5]; End Point (DB),0.0
same,BSS total score change vs placebo,"[5]; […]2001, Day 1: 4 hours postdose, Day 2 (DB), End Point (DB)",no statistically significant differences
same,AUC(0-t),[6]; 28 mg,128 to 183 ng·h/mL
same,Cmax,[6]; 28 mg,49.7 to 70.5 ng/mL
same,half-life,"[6]; 28 mg, Terminal t1/2, young adult subjects, single dose nasal spray 28 mg, range across studies",435 to 990 min
same,Tmax,"[6]; 28 mg, Tmax, young adult subjects, single dose nasal spray 28 mg, range of median values",19.8 to 40.2 min
same,Tmax,"[6]; 28 mg, tmax typically observed after the first nasal spray, 28 mg",20 to 40 min
same,AUC(0-t),[6]; 56 mg,216 to 317 ng·h/mL
same,Cmax,[6]; 56 mg,71.8 to 117 ng/mL
same,half-life,"[6]; 56 mg, Terminal t1/2, young adult subjects, single dose nasal spray 56 mg, range across studies",408 to 590 min
same,Tmax,"[6]; 56 mg, Tmax, young adult subjects, single dose nasal spray 56 mg, range of median values",30 to 46.2 min
same,Tmax,"[6]; 56 mg, tmax typically observed after the first nasal spray, 56 mg",30 to 45 min
same,AUC(0-t),[6]; 84 mg,310 to 489 ng·h/mL
same,Cmax,[6]; 84 mg,95 to 164 ng/mL
same,half-life,"[6]; 84 mg, Terminal t1/2, young adult subjects, single dose nasal spray 84 mg, range across studies",396 to 720 min
same,Tmax,"[6]; 84 mg, Tmax, young adult subjects, single dose nasal spray 84 mg, range of median values",31.8 to 49.8 min
same,Tmax,"[6]; 84 mg, tmax typically observed after the first nasal spray, 84 mg",30 to 50 min
same,half-life,"[6]; Mean terminal t1/2, range, nasal administration",420 to 720 min
same,half-life,"[6]; Median terminal t1/2, nasal administration",642 min
same,CADSS perceptual changes/dissociative symptoms resolved by,[7],≤ 2 h
same,CADSS perceptual changes/dissociative symptoms: time of peak,[7],30 to 40 min
